Where a SMILES comes first, the peptide text is derived from it.
Test system: drug-resistant Mycobacterium tuberculosis
Conditions: drug-resistant Mycobacterium tuberculosis growth; peptide 10 micrograms per ml; seven days

Question: `NCCCC[C@H](NC(=O)[C@@H](N)CCCCN)C(=O)NCC(=O)N[C@@H](CCC(=O)O)C(=O)O` [MPF, Lys-Lys-Gly-Glu-OH] (H-KKGE-OH) was tested. Which “% inhibition” value did it give?
Answer: 0.0%
